The values that follow come from patent US4663309A, “Novel peptide hormones with calcitonin-like activity” (University Patents, Inc., priority 1985, dated 1987).

Series [1] in a line: Circular dichroism spectra, alpha-helical structure in solution. It counts as physicochemical. From the text:
The circular dichroism (CD) spectra of MCT-I and salmon calcitonin (designated "SCT-I", available from Armour Pharmaceuticals, Kankakee, IL and used without further purification) from 250 nm to 205 nm show minima at 222 nm and 208 nm characteristic of α-helical structure. For MCT-I, the mean residue molar ellipticity at 222 nm, [θ]222, was -7,800 deg.cm^2 /dmol (10^-4 M peptide, 0.02M sodium phosphate buffer, 0.16M KCl, pH 7.4), from which the α-helicity was estimated to be 30% (assuming no contribution to CD by β-sheet structure) according to the method of Morrisett, J. D., J. S. K. Davis, H. J. Pownall, and A. M. Gotto, Biochemistry 12:1290 (1973). […] Similarly, the value of [θ]222 for solutions of SCT-I over the same concentration range and under the same conditions also remains constant at -4,600 deg.cm^2 /dmol, leading to an estimate of 20% α-helix for this peptide. In 50% trifluoroethanol, a structure promoting solvent, both MCT-I and SCT-I were estimated to be 50% α-helical at a concentration of 5×10^-5 M, as was found by Brewer, H. D. and H. Edelhoch, J. Biol. Chem. 245:2402 (1970) for porcine calcitonin (PCT) in 50% 2-chloroethanol.
The circular dichroic spectra of MCT-II solutions buffered with 0.02M sodium phosphate at pH 7.4 and containing 0.16M KCl were measured from 250 nm to 200 nm using a Carey 60™ spectropolarimeter (Varian Instruments, Palo Alto. CA). The spectrometer cells used were washed with concentrated nitric acid, rinsed thoroughly with deionized water, then treated with a 1% aqueous polyethylene glycol (Mr 15K-20K) solution for 1 hr and finally rinsed with water before using. The molar ellipticities obtained from the circular dichroic spectra of MCT-II from 240 nm to 204 nm were fitted by a linear combination of three different basis functions derived from the spectra described by Greenfield, N. and G. D. Fasman, Biochem. 8:4108(1969) for α-helix, β-sheet, and random coil structure. […] Since there was no significant contribution to the spectrum from β-sheet structure, we used the mean residue molar ellipticity at 222 nm, [ θ]222, to estimate changes in α-helical structure (Morrisett et al., supra). The results are given in FIG. 3; each data point represents the mean from two experiments. […] [θ]222 for the monomer was -5,200 deg.cm^2 /dmol (20% α-helix) and -10,475 deg.cm^2 /dmol (35% α-helix) for the trimer. […] This dissociation constant corresponds to a 4.5 kcal/mol of stabilization energy per monomer for trimerization. Under similar conditions and over the same concentration range [θ]222 for MCT-I and SCT-I remained constant at -7,800 deg.cm^2 /dmol and -4,600 deg.cm^2 /dmol, respectively.
A general note: Circular dichroism is the unequal absorption of left and right circularly polarised light.

Series [2] in a line: Surface monolayer studies at the air-water interface. It counts as physicochemical. The conditions noted are these: for Collapse pressure of the monolayer: air-water interface, 0.01M Tris.HCl pH 7.4, 0.1M NaCl. As to the method: For surface monolayer studies, a subphase of 0.01M Tris.HCl, pH 7.4 with 0.1M NaCl was prepared with glass-distilled water. Surfactant contaminants were removed by bubbling air through the solution for 10 min, then aspirating the surface of the buffer. Insoluble monolayers were spread from a 2.8×10^-4 M solution of MCT-I in 0.1 mM HCl. The surface pressure π(dyn/cm) of the MCT-I monomolecular layer was measured as a function of area, A (cm^2), using a Lauda™ film balance (Brinkman Instruments, Norwalk, CT). At the air-water interface, MCT-I and SCT-I form insoluble monolayers when spread from concentrated solutions in 0.01M HCl. The force-area (π-A) curves between 5 and 12 dyn/cm are described by the equation π[A-A.infin. (1-κπ)]=nRT where κ is a constant reflecting the compressibility of the monolayer and A.infin. is the limiting molecular area extrapolated to zero surface pressure. The parameters calculated for the two peptides were very similar, κ=0.016 cm/dyn for MCT-I and 0.02 cm/dyn for SCT-I, while A.infin. =362 Å^2 for MCT-I and A.infin. =322 Å^2 for SCT I. However, the collapse pressure of 24 dyn/cm found for the monolayer of MCT-I was much higher than the value of 14 dyn/cm observed for SCT-I.
Surface monolayer studies were conducted as in Example 4. MCT-II forms stable monolayers at the air-water interface when spread from concentrated solutions in 0.01M HCl. The force-area curve (π-A) between 0 dyn/cm and 21 dyn/cm can be described by the equation π(A-A.infin. (1-κπ))=nRT where A.infin. is the limiting molecular area extrapolated to zero surface pressure and κ is a constant reflecting the compressibility of the monolayer. The parameters calculated using the entire π-A curve indicate that MCT-II forms a compact, relatively rigid structure at the air-water interface. A.infin. was 362±10 Å^2 compared with 434±7 Å^2 for MCT-I and 559±18 Å^2 for SCT-I. Monolayers of SCT-I, MCT-I, and MCT-II were successively less compressible with κ having values of 0.03 cm/dyn for SCT-I, 0.02 cm/dyn for MCT-I, and 0.01 cm/dyn for MCT-II. Collapse of the monolayer occurred at 22 dyn/cm which was slightly lower than the 24 dyn/cm observed for MCT-I and higher than for the SCT-I monolayer which collapses at 12 dyn/cm.

[3] abbreviates: calculated using the entire π-A curve (Example 7).
Where [4] appears, read: π-A curve between 5 and 12 dyn/cm (Example 4).

Bridge positions count the residues as written; N and C are the ends. Peptide text beside a SMILES is read from it.

As to `CC(C)C[C@H](NC(=O)[C@H](CCCCN)NC(=O)[C@H](CCC(N)=O)NC(=O)[C@H](CC(C)C)NC(=O)[C@H](CCC(N)=O)NC(=O)[C@H](CCC(N)=O)NC(=O)[C@H](CC(C)C)NC(=O)[C@H](CC(C)C)NC(=O)[C@@H]1CSSC[C@H](N)C(=O)N[C@@H](CO)C(=O)N[C@@H](CC(N)=O)C(=O)N[C@@H](CC(C)C)C(=O)N[C@@H](CO)C(=O)N[C@@H]([C@@H](C)O)C(=O)N1)C(=O)N[C@@H](CC(C)C)C(=O)N[C@@H](CCC(N)=O)C(=O)N[C@@H](CCCCN)C(=O)N[C@@H](CC(C)C)C(=O)N[C@@H](CCCCN)C(=O)N[C@@H](CCC(N)=O)C(=O)N[C@@H](Cc1ccc(O)cc1)C(=O)N1CCC[C@H]1C(=O)N[C@@H](CCCNC(=N)N)C(=O)N[C@H](C(=O)N[C@@H](CC(N)=O)C(=O)N[C@H](C(=O)NCC(=O)N[C@@H](CO)C(=O)NCC(=O)N[C@H](C(=O)N1CCC[C@H]1C(N)=O)[C@@H](C)O)[C@@H](C)O)[C@@H](C)O` [MCT-II] (H-CSNLSTCLLQQLQKLLQKLKQYPRTNTGSGTP-NH2; disulfide 1-7; N-terminus assumed), the “Stabilization energy per monomer for trimerization” value in series [1] came out at 4.5 kcal/mol. The “α-helix of the monomer” value in series [1] (monomer) is 20%. For the same compound, in series [1] (monomer/trimer equilibrium), the “Dissociation constant (Kd) for the oligomer” value is on record as 5.06×10^-11 M^2. Besides, the “[θ]222 for the monomer” value in series [1] (monomer, 0.02M sodium phosphate pH 7.4, 0.16M KCl) is given as -5,200 deg.cm^2 /dmol. Further, in series [1] (trimer), the “α-helix of the trimer” value was 35%. Also, the “[θ]222 for the trimer” value in series [1] (trimer, 0.02M sodium phosphate pH 7.4, 0.16M KCl) is on record as -10,475 deg.cm^2 /dmol. In addition, the “Collapse pressure of the monolayer” value in series [2] was 22 dyn/cm. Besides, in series [2] (setting [3]), the “A∞, limiting molecular area extrapolated to zero surface pressure” value is reported as 362±10 Å^2 and the “κ, compressibility constant of the monolayer” value is 0.01 cm/dyn.
Regarding `CC(C)C[C@@H]1NC(=O)[C@H](CC(N)=O)NC(=O)CNC(=O)[C@@H](N)CSSC[C@@H](C(=O)N[C@@H](CC(C)C)C(=O)N[C@@H](CC(C)C)C(=O)N[C@@H](CCC(N)=O)C(=O)N[C@@H](CCC(N)=O)C(=O)N[C@@H](Cc2c[nH]c3ccccc23)C(=O)N[C@@H](CCC(N)=O)C(=O)N[C@@H](CCCCN)C(=O)N[C@@H](CC(C)C)C(=O)N[C@@H](CC(C)C)C(=O)N[C@@H](CCC(N)=O)C(=O)N[C@@H](CCCCN)C(=O)N[C@@H](CC(C)C)C(=O)N[C@@H](CCCCN)C(=O)N[C@@H](CCC(N)=O)C(=O)N[C@@H](CC(C)C)C(=O)N2CCC[C@H]2C(=O)N[C@@H](CCCNC(=N)N)C(=O)N[C@H](C(=O)N[C@@H](CC(N)=O)C(=O)N[C@H](C(=O)NCC(=O)N[C@@H](CO)C(=O)NCC(=O)N[C@H](C(=O)N2CCC[C@H]2C(N)=O)[C@@H](C)O)[C@@H](C)O)[C@@H](C)O)NC(=O)[C@H]([C@@H](C)O)NC(=O)[C@H](CO)NC1=O` [MCT-I] (H-CGNLSTCLLQQWQKLLQKLKQLPRTNTGSGTP-NH2; disulfide 1-7), the “α-helicity estimated from [θ]222” value in series [1] (0.02M sodium phosphate, 0.16M KCl, pH 7.4) is listed as 30%. For the same compound, the “Mean residue molar ellipticity at 222 nm, [θ]222” value in series [1] (0.02M sodium phosphate, 0.16M KCl, pH 7.4, constant from 10^-7 M to 10^-4 M) is reported as -7,800 deg.cm^2 /dmol. In addition, the “α-helicity in 50% trifluoroethanol” value in series [1] (5×10^-5 M peptide) came to 50%. In series [2], the “Collapse pressure of the monolayer” value was determined as 24 dyn/cm. For the same compound, the entries for the “A∞, limiting molecular area extrapolated to zero surface pressure” value in series [2] (setting [3]) and in series [2] (setting [4]) were 434±7 Å^2 and 362 Å^2, respectively. The “κ, compressibility constant of the monolayer” value in series [2] (setting [3]) is on record as 0.02 cm/dyn; in series [2] (setting [4]), 0.016 cm/dyn.
